The target of one experiment is Cytochrome P450 3A4 (Homo sapiens, UniProt P08684). The experiment in a line: Inhibition of CYP3A4. It counts as ADME.
Experiment [1] has as its target Insulin-like growth factor 1 receptor (Homo sapiens, UniProt P08069).
Description: Inhibition of human recombinant full length IGF1R expressed in mouse 3T3 cells

Each structure is given as a SMILES string.

Sequence of Cytochrome P450 3A4 (P08684 whole entry): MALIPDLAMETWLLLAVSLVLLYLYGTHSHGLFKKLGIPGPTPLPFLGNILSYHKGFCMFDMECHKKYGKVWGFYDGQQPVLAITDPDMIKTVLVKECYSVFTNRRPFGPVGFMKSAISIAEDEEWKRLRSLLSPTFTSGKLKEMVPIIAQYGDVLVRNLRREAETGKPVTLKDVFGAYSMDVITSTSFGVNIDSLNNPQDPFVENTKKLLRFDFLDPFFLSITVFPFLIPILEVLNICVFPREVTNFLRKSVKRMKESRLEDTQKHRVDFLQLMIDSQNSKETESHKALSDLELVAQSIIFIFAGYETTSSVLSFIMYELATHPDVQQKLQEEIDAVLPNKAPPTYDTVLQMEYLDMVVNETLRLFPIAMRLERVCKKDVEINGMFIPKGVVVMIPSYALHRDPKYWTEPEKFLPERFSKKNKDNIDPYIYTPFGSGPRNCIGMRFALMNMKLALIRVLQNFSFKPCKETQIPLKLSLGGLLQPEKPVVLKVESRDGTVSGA
Sequence of Insulin-like growth factor 1 receptor (P08069 31-736 limits assumed): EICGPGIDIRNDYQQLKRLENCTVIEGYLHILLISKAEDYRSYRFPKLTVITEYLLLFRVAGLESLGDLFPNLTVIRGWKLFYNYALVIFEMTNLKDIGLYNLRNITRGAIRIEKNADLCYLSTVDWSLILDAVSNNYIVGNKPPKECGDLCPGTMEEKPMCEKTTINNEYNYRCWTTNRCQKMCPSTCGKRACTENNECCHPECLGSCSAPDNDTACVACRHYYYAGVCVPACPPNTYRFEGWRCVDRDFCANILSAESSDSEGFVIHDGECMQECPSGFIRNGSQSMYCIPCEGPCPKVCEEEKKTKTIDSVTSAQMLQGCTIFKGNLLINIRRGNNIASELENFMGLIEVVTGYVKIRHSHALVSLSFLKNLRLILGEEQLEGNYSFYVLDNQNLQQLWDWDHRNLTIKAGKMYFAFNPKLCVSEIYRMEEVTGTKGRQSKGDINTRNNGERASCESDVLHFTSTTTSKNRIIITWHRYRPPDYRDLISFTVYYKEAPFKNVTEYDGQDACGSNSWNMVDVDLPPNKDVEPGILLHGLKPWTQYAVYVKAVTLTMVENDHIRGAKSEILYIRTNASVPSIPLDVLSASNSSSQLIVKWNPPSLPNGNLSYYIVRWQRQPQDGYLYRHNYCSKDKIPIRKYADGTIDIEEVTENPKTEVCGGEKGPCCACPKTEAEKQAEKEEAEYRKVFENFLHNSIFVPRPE
Sequence of Insulin-like growth factor 1 receptor (P08069 741-1367 limits assumed): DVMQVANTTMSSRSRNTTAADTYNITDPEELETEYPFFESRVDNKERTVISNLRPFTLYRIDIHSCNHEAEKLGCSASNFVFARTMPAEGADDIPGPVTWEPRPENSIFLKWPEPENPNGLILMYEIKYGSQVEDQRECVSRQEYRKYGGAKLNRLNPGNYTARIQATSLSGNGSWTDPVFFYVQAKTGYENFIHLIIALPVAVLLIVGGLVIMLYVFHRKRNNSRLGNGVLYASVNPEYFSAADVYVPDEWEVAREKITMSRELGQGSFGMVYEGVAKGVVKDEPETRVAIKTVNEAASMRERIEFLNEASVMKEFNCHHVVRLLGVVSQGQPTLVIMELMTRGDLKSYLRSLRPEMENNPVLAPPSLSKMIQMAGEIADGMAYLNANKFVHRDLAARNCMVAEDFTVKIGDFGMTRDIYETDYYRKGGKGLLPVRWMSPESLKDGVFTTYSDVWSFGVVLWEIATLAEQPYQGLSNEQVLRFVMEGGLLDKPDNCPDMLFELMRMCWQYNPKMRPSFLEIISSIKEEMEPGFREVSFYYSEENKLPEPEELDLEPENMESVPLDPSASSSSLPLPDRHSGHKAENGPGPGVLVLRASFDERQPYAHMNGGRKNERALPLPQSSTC

The molecule `Nc1nccn2c1c(-c1ccc3ccc(-c4ccccc4)nc3c1)nc2[C@H]1C[C@@H](N2CCCCC2)C1` came in with an IC50 at Cytochrome P450 3A4 of 7.5 µM.
Take `Nc1nccn2c1c(-c1ccc3ccc(-c4ccccc4)nc3c1)nc2[C@H]1C[C@H](CN2CCC2)C1`: the IC50 turned out to be 17 µM against Cytochrome P450 3A4 and 0.042 µM in experiment [1].
In turn, `Nc1nccn2c1c(-c1ccc3ccc(-c4ccccc4)nc3c1)nc2[C@H]1C[C@@H](N2CCCC2)C1` showed an IC50 against Cytochrome P450 3A4 of 17 µM.
Take `Oc1nccn2c(C3CCC3)nc(-c3ccc4ccc(-c5ccccc5)nc4c3)c12`: the IC50 in experiment [1] is > 10 µM.

The term IC50 denotes the point on the concentration scale where inhibition reaches its midpoint.

For the origin of these results see ChEMBL document CHEMBL1143953, “Novel 2-phenylquinolin-7-yl-derived imidazo[1,5-a]pyrazines as potent insulin-like growth factor-I receptor (IGF-IR) inhibitors” (Bioorg Med Chem, 2008).
